Reference: PMC2746095 (Biochemistry, 2009)
Substitutions are numbered along the chain they refer to.

Columns and labels:
[1] = target: T1, R. etli pyruvate carboxylase (RePC) (Rhizobium etli, UniProt Q2K340, T882A); assay: bicarbonate-dependent ATPase, coupled Pi assay, partial inhibition fit; assay type: biochemical
T1 sequence (Q2K340 1-1154 T882A): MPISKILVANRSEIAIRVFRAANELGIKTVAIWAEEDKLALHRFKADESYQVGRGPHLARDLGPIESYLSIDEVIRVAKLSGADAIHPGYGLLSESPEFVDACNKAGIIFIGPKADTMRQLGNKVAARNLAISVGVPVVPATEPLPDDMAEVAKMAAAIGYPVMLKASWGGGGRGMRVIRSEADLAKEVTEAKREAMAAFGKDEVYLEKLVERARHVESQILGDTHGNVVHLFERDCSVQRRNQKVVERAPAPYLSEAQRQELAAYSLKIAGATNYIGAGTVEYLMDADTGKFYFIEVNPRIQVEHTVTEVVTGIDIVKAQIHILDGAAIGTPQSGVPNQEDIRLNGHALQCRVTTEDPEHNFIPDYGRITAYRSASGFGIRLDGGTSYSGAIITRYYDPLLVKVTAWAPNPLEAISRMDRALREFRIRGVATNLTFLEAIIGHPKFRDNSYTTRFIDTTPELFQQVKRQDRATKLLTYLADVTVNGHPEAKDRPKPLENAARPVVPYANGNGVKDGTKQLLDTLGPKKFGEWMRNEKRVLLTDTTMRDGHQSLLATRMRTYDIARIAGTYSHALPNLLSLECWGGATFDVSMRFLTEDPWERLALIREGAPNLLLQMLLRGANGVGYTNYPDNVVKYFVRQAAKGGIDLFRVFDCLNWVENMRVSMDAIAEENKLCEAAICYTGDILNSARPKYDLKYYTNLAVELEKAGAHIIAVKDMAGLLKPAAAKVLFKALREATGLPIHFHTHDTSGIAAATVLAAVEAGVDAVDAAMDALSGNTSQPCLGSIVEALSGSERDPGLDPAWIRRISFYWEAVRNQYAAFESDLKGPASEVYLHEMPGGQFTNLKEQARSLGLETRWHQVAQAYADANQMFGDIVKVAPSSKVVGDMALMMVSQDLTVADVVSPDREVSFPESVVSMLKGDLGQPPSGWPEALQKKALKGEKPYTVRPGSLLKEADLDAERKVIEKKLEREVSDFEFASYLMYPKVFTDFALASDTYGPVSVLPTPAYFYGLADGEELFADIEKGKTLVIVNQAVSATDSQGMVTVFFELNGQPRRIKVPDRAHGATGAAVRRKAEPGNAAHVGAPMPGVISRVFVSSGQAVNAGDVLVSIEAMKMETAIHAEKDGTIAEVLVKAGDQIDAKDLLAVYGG

[2] = target: T2, R. etli pyruvate carboxylase (RePC) (Rhizobium etli, UniProt Q2K340); assay: bicarbonate-dependent ATPase, coupled Pi assay, fit to substrate inhibition; assay type: biochemical; details: 0-20 mM pyruvate, text prints 10.2 ± 0.1 mM, 100 mM Tricine pH 7.5, 25 °C, 10 mM HCO3-, 2.5 mM MgATP, 2.5 mM MgCl2, 0.25 mM acetyl-CoA
T2 sequence (Q2K340 1-1154): T1 sequence (Q2K340 1-1154 T882A) with A882T

Row | Structure (SMILES) | Ki [1] [µM] | Ki [2] [µM]
1 | NC(=O)C(=O)O [oxamate] | 1000 ± 200 | 
2 | CC(=O)C(=O)O [pyruvate] | 800 ± 100 | 10000 ± 1000
